Results from publication PMC8450341 (Frontiers in Physiology, 2021).
“Also recorded” adds a separate entry of the source. Read-outs that look alike come from different tables or passages of the source. Values belong to the compound of their own block, whether it stands above or below them.

How the values were obtained:
[1] = system: calves with hypoxia-induced pulmonary hypertension; assay: Echocardiography in neonatal calf model of hypoxia-induced PH; type: in vivo, bovine calf
Source text: (§1) The bovine calf hypoxia model of PH previously reported ([Stenmark et al., 1987]; [Lemler et al., 2000]; [Bartels et al., 2016]) consistently produces significant pulmonary hypertension (mean PAP > 100 mmHg) and subsequent tissue changes on post-mortem examination ([Stenmark et al., 1987]). Animals display blood gas PaO2 and PaCO2 values consistent to severe hypoxia and PH ([Stenmark et al., 1987]; [Lemler et al., 2000]). Male Holstein dairy calves at 7 days of age (45–50 kg) were sourced from a local dairy farm. This study utilized a case comparison design. […] Hypoxic calves (Groups 1 and 2) were exposed to hypobaric hypoxia at simulated elevation of 10,000 feet for 48–72 h to allow acclimation then exposed to hypobaric hypoxia at the study condition of 15,000 feet simulated elevation (PB = 430 mmHg, Hypo-Hyperbaric Chamber Facility, Colorado State University Department of Physiology). The standard exposure interval was 14 days at this elevation. Control normoxic calves remained at ambient Fort Collins pressure (4,950 feet PB = 630 mmHg).
(§2) This dosing regimen was selected to minimize adverse effects based on guidelines for human pediatric patients (Lia Gore MD, Center for Cancer and Blood Disorders, Children’s Hospital Colorado, personal communication.) Group 2 calves received no drug treatment. At this age, the calf digestive system has not matured and the abomasum functions as the sole stomach similar to humans.
(§3) Echocardiography was utilized for non-invasive sequential assessment of cardiopulmonary function as described previously ([Lemler et al., 2000]; [Bartels et al., 2016]). […] The progression of pulmonary hypertension was evaluated by sequential echocardiography at the study condition (15,000 feet or normoxia) on study days 4, 8 and terminal day 14. Parasternal long and short axis recordings were obtained over 3–4 cardiac cycles, together with M-mode traces as indicated, using GE Echo PACS (General Electric, Chicago, IL, United States) or MicroDicom^1 software. Echocardiographic findings consistent with PH (abnormal RV size and function), or interventricular septum abnormalities including abnormal motion or flattening were evaluated ([Boon, 2011]). Septal motion and flattening were further quantitated by eccentricity index EI on short-axis views with EchoPACS. Tricuspid or mitral valve regurgitation was scored qualitatively as trace, mild, moderate or severe. Global RV function was assessed qualitatively. When RV images on long-axis included the entire chamber, RV fractional area change (FAC) was calculated with EchoPACS. RV fractional shortening was measured from M-mode recordings using MicroDicom. Calves were monitored following each non-terminal echo procedure for recovery including standing and interacting normally, and normal milk intake.

normoxic control calves [2] = assay: Echocardiography in normoxic vorinostat-treated control calves; type: in vivo, bovine calf
Source text: as §1, §2, §3

[3] = system: calves with hypoxia-induced pulmonary hypertension; assay: Hemodynamics by right heart catheterization, hypoxic calf; type: in vivo, bovine calf
Source text: as §1, §2
(§4) Standard measurements of PAP and cardiac output were performed by right heart catheterization concurrent with the final echo in both the two normoxic and two hypoxic calves on study day 14 as described previously ([Stenmark et al., 1987]; [Lemler et al., 2000]).
(§5) Data were obtained from right heart catheterization as described in Materials and Methods. Standard units: Pressure, mm Hg; Cardiac output, L/min; PA, pulmonary artery.

normoxic control calves [4] = assay: Hemodynamics by right heart catheterization, normoxic calves; type: in vivo, bovine calf
Source text: as §1, §2, §4, §5

[5] = system: calves in normoxic or hypoxic conditions; assay: Clinical signs and blood chemistry during and after dosing; type: in vivo, bovine calf
Source text: as §2

HDAC1 = assay: Immunoblotting of HDAC abundance in RV and lung homogenates; type: in vivo, bovine calf; conditions: vorinostat over initial 5 days of hypoxia, measured at end of 14 days hypoxic exposure, vs untreated PH
Experimental: At the conclusion of the study period, calves were deeply anesthetized and euthanized. Tissue samples from right ventricle free wall and distal lung parenchyma were snap frozen in liquid nitrogen for laboratory analysis. RNA isolation and quantitative PCR were performed as described previously ([Frid et al., 2009]). mRNA abundance was quantitated relative to HPRT by the delta Ct method. The following primers were used (5′–3′). […] TCCA; Osteopontin (SPPA), Fwd:[…]; Hypoxanthine ribosyl transferase (HPRT), Fwd:[…], Rev:[…].
Procedures for immunoblotting and densitometry were performed as described previously ([Li et al., 2011]). HDAC antibodies were obtained from Cell Signaling Technology (HDAC1, #5356; HDAC5, #20458).
(A) Immunoblotting HDAC abundance.

[6] = system: brain natriuretic peptide (BNP) and skeletal muscle alpha-actin mRNAs; assay: Real-time PCR of genes in RV hypertrophic remodeling; type: in vivo, bovine calf
Experimental: (§6) At the conclusion of the study period, calves were deeply anesthetized and euthanized. Tissue samples from right ventricle free wall and distal lung parenchyma were snap frozen in liquid nitrogen for laboratory analysis. RNA isolation and quantitative PCR were performed as described previously ([Frid et al., 2009]). mRNA abundance was quantitated relative to HPRT by the delta Ct method. The following primers were used (5′–3′). Fibronectin, Extracellular Domain A (ED-A Fn), Fwd:[…], Rev:[…]; Tenascin C (TnC), Fwd:G […], Rev:[…] TCCA; Osteopontin (SPPA), Fwd:[…] […]
(§7) (A) Immunoblotting HDAC abundance. RV and lung homogenates were prepared and HDAC abundance was determined by immunoblotting as described in section “Materials and Methods.” Additional untreated control and hypoxic animals were analyzed in parallel for comparison. Protein abundance was quantitated densitometrically relative to beta-actin. *p < 0.05 vs. control (unpaired two-tailed t-test). […] Abundances of indicated mRNAs were quantitated by real-time PCR as described in section “Materials and Methods.” Animals used in the present study were analyzed together with samples from additional untreated hypoxic and normoxic calves (n = 4 each) that were managed according to the same animal protocols described in section “Materials and Methods,” and studied around the same period of time. […]

[7] = system: ED-A Fn, tenascin C, osteopontin and periostin mRNAs; assay: Real-time PCR of genes in pulmonary remodeling; type: in vivo, bovine calf
Experimental: as §6, §7

[8] = system: IL-6, CSF2, SDF1, IL1β, IL-1RA, TLR2, POSN mRNAs; assay: Pairwise qPCR of inflammatory and matrikine gene expression; type: in vivo, bovine calf; conditions: hypoxic vorinostat-treated vs. untreated calf
Experimental: At the conclusion of the study period, calves were deeply anesthetized and euthanized. Tissue samples from right ventricle free wall and distal lung parenchyma were snap frozen in liquid nitrogen for laboratory analysis. RNA isolation and quantitative PCR were performed as described previously ([Frid et al., 2009]). mRNA abundance was quantitated relative to HPRT by the delta Ct method. The following primers were used (5′–3′). Fibronectin, Extracellular Domain A (ED-A Fn), Fwd:[…], Rev:[…]; Tenascin C (TnC), Fwd:G […], Rev:[…] TCCA; Osteopontin (SPPA), Fwd:[…] CACAGA, Rev:[…]; Periostin (POSTN), Fwd:[…], Rev:CAC […]; Skeletal muscle alpha-actin (ACTA1), Fwd:[…], Rev:GAAGGT […]; Brain natriuretic peptide (NPPB), Fwd:[…], Rev:[…]; Hypoxanthine ribosyl transferase (HPRT), Fwd:[…], Rev:[…].
Figure 2. Comparison of inflammatory and matrikine gene expression in vorinostat treated versus untreated hypoxic calves. mRNA abundance was quantitated as described in Methods. For each indicated mRNA, abundance in the vorinostat-treated PH calf was determined relative to that in the untreated PH calf (indicated by dotted line at unity).

[9] = cited from earlier work; for metabolite AUC relative to that of vorinostat: in humans
[10] = parameters: method as in Fraczek et al., 2013; conditions: dogs, oral; ref Fraczek et al., 2013; cited from earlier work
[11] = parameters: method as in Fraczek et al., 2013; conditions: rats, oral; ref Fraczek et al., 2013; cited from earlier work
[12] = cited from earlier work
bovine PH-fibs = system: bovine PH-fibs; parameters: method as in Li et al., 2011; conditions: ref Li et al., 2011; cited from earlier work
in vivo = conditions: male, Holstein, bovine, serum, po, 235 mg
Experimental: (§8) Pharmacokinetic parameters were calculated by a non-compartmental model using Phoenix WinNonlin v8.1 ([Wagner, 1993]).

[13] = Serum pharmacokinetics after single oral dose in normoxic calves; conditions: for ratio of metabolite AUC to vorinostat AUC: calves
Experimental: as §8

[14] = system: rat models of hypoxia-induced pulmonary hypertension; conditions: cited from earlier work
[15] = Hypoxic vorinostat treated calf, study day 14
[16] = vorinostat-treated PH calf, day 14
[17] = Normoxic vorinostat treated #1, study day 14
[18] = Normoxic vorinostat treated #2, study day 14
[19] = human adult dose of 400 mg daily, ref Iwamoto et al., 2013
[20] = single oral dose, four normoxic calves
[21] = ref Cho et al., 2010, Cavasin et al., 2012

RV Fractional area change (FAC) (normoxic control calves [2]; Normoxic #2 calf, vorinostat administration, Study Day 14): 50.9% | RV fractional shortening (normoxic control calves [2]; control (normoxic vorinostat-treated) calf, day 14, M-mode): 50% | Cardiac Output (normoxic control calves [4]; [17]): 4.4 L/min | Mean PA Pressure (normoxic control calves [4]; [17]): 25.1 mm Hg | PA Pulse Pressure (normoxic control calves [4]; [17]): 17.6 mm Hg | Systolic PA Pressure (normoxic control calves [4]; [17]): 34.0 mm Hg | Cardiac Output (normoxic control calves [4]; [18]): 5.1 L/min | Mean PA Pressure (normoxic control calves [4]; [18]): 19.4 mm Hg | PA Pulse Pressure (normoxic control calves [4]; [18]): 14.5 mm Hg | Systolic PA Pressure (normoxic control calves [4]; [18]): 27.1 mm Hg | effect on hemodynamic parameters in normoxic calves (normoxic control calves [4]; compared to the authors' previous studies): did not affect | standard blood chemistry values ([5]; data not shown): within normal reference intervals | abundance of ED-A Fn, TNC, osteopontin and periostin mRNAs in normoxic animals ([7]; normoxic animals): not affected | Tmax (in vivo): ≤ 4 h | time until serum vorinostat returns to undetectable levels ([13]; after single oral administration): ≤ 24 h | integrated area under the concentration × time curve [13, 20]: ~1,500 nM•h | peak serum concentration [13, 20]: ~400 nM | time to peak serum concentration [13, 20]: ~4 h
SMILES: O=C(CCCCCCC(=O)Nc1ccccc1)NO [vorinostat, suberanilohydroxamic acid]
RV Fractional area change (FAC) ([1]; Hypoxic #1 calf, vorinostat first 5 days, Study Day 14): 30.1% | septal distortion compared to untreated PH calf ([1]; vorinostat-treated PH calf, apical 4-chamber echo images): reduced septal distortion | RV fractional shortening ([1]; vorinostat-treated PH calf, day 14, M-mode): 20% | degree of RV dysfunction compared to untreated hypoxic calf ([1]; vorinostat-treated hypoxic calf, days 4, 8, and 14): consistently less severe | adverse cardiac effects (normoxic control calves [2]; based on echo and hemodynamic criteria): no evidence for adverse cardiac effects | echocardiographic evidence of negative impacts on cardiac function (normoxic control calves [2]; control normoxic calves, vorinostat treatment): not associated with echocardiographic evidence of negative impacts on cardiac function | Cardiac Output [3, 15]: 5.5 L/min | Mean PA Pressure [3, 15]: 97.6 mm Hg | PA Pulse Pressure [3, 15]: 38.9 mm Hg | Systolic PA Pressure [3, 15]: 118.5 mm Hg | PA pulse pressure compared to untreated hypoxic calf [3, 16]: tended toward reduced; also recorded: substantially reduced | PA systolic pressure compared to untreated hypoxic calf [3, 16]: tended toward reduced; also recorded: slightly reduced | cardiac output compared to untreated hypoxic calf [3, 16]: increased; also recorded: increasing | mean PA pressure compared to untreated hypoxic calf [3, 16]: similar; also recorded: did not lower | adverse clinical signs attributable to vorinostat administration ([5]; during or following active dosing, normoxic or hypoxic conditions): No adverse clinical signs | expression of HDAC1 in both lung and RV (HDAC1): tended to decrease | RV expression of BNP and skeletal muscle alpha-actin mRNAs ([6]; hypoxic calf, compared to calves with untreated PH): tended to decrease | RV mRNA abundance (BNP, skeletal muscle alpha-actin) of control calves ([6]; normoxic control calves): not affected | lung expression of ED-A Fn, TNC, osteopontin and periostin mRNAs ([7]; hypertensive calves compared to untreated hypertensive calves): tended to reduce | expression of pro-inflammatory mRNAs including IL-6, CSF2, SDF1, IL1β, IL-1RA, TLR2, and the matrikine POSN [8]: reduced expression | AUC [9, 19]: 4,000–6,000 nM•h | Cmax [9, 19]: 1000 to 1500 nM | half-life ([9]; humans and other animal species, ref Mohamed et al., 2012, Fraczek et al., 2013, Iwamoto et al.): approximately 2 h | Bioavailability of oral vorinostat ([9]; humans, ref Fraczek et al., 2013): 43% | Tmax ([9]; post-fed humans, ref Iwamoto et al., 2013): ~4 h | bioavailability [10]: 11% | bioavailability [11]: 2% | aqueous solubility [12]: poor | activated fibroblast phenotype (bovine PH-fibs): reversed

SMILES: Nc1ccccc1NC(=O)c1ccc(CNC(=O)OCc2cccnc2)cc1 [MS-275]
RV function [14, 21]: preserved | RV hypertrophic and pro-fibrotic remodeling [14, 21]: attenuated

SMILES: CCC(=O)CCCCC[C@@H]1NC(=O)[C@H]2CCCCN2C(=O)[C@H]([C@@H](C)CC)NC(=O)[C@H](Cc2cn(OC)c3ccccc23)NC1=O [apicidin]
activated fibroblast phenotype (bovine PH-fibs): reversed

ratio of metabolite AUC to vorinostat AUC ([13]; single oral dose): ~3 fold
SMILES: O=C(CCCCCCC(=O)Nc1ccccc1)NO[C@@H]1O[C@H](C(=O)O)[C@@H](O)[C@H](O)[C@H]1O [Vorinostat glucoronide]
metabolite AUC relative to that of vorinostat ([9]; ref Iwamoto et al., 2013): 3–4 times

SMILES: CCCC(CCC)C(=O)O [valproic acid]
RV hypertrophy [14, 21]: attenuated | hypoxia-induced PH in rats ([14]; ref Zhao et al. (2012)): inhibited

Tmax (in vivo): 6 h | ratio of metabolite AUC to vorinostat AUC ([13]; single oral dose): ~20 fold
SMILES: O=C(O)CCC(=O)Nc1ccccc1 [Succininanilic Acid, succinanilic acid]
metabolite AUC relative to that of vorinostat ([9]; ref Iwamoto et al., 2013): 10–13 times

SMILES: Nc1ccccc1NC(=O)c1ccc(CNc2nccc(-c3cccnc3)n2)cc1 [MCD-0103]
RV function [14, 21]: preserved | RV hypertrophic and pro-fibrotic remodeling [14, 21]: attenuated
